Earlier results on four compounds are cited in patent US6696575B2, “Biodegradable, electrically conducting polymer for tissue engineering applications” (Board of Regents, The University of Texas System, priority 2001, dated 2004).

In one series the test system is mouse. The conditions noted are these: oral administration.
The subject of the next series is rat sciatic nerve. The note with it: in vivo.
Another series relates to rat. The note with it: oral administration.

Turning to `OCCCO` [Propanediol, 1,3-propanediol], in the series on mouse, the “one-half lethal dose (LD50)” value is 5000 mg/kg.

With polypyrrole [PP], the “tissue response on implantation” value in the series with rat sciatic nerve is on record as “provoked little adverse tissue response”.

For the compound `CCCCCC(=O)O` [hexanoic acid], in the series on rat, the “one-half lethal dose (LD50)” value is 3000 mg/kg.

`CCO` [ethanol]: the “one-half lethal dose (LD50)” value in the series with rat was 7000 mg/kg.
